# Laboratory results as given in patent US20060269924A1, “Modulation of telomere-initiated cell signaling” (TRUSTEES OF BOSTON UNIVERSITY, priority 2003, published 2006).
# {P} = phosphate
# How the values were obtained:
# Saos-2 cells = assay: FACS analysis of Saos-2 cells; format: cell-based; conditions: Saos-2 (telomerase negative), 40 μM, 48 hours
# Procedure: FIG. 18a: FACS profiles from one representative experiment of three with the percentage and standard deviations of cells in each phase of the cell cycle was calculated from triplicate cultures of each condition. FIG. 18b: Western blots with an antibody specific for phospho-p95/Nbs1. Lanes 1, 2 and 3 contained protein from cells treated with diluent, 11mer-1 or 11mer-2, respectively. Control cells (3 hours) were irradiated with 10 Gy of IR (+), or were sham irradiated (−).
# Saos-2 cells are an osteosarcoma cell line that is reportedly telomerase negative and maintain telomeres by the ALT pathway. Saos-2 cell lines were treated with either diluent or 40 μM of the indicated oligonucleotide and cells were collected after 48 hours for FACS analysis. […] The results that the effect of the T-oligo in the telomerase negative cells is identical to the response in telomerase positive malignant cell lines.
# [1] = tested on: pRb phosphorylation on serine 780, serine 795 and serine 807/811; assay: Western blot of pRb phosphorylation in HT-1080 cells; format: cell-based, human
# Procedure: FIG. 13a: Exposure to T-oligo increases SA-β-Gal activity. HT-1080 cells were treated for 4 days with diluent alone or 40 μM T-oligo or the complementary control oligo, then stained and assayed for SA-β-Gal activity. FIG. 13b: Quantitative analysis of SA-β-Gal positive cells. Cells expressing SA-β-Gal activity were counted and presented as percentage of total cells in the cultures. Averages and standard deviations were calculated from 3 representative fields from each of 3 independent experiments. FIG. 13c: Effect of T-oligo on cell proliferation. Cells were treated for 4 days as in FIG. 12 and assayed for DNA synthesis by BrdU incorporation. FIG. 13d: Quantitative analysis of BrdU incorporation. Dark black nuclei indicate BrdU incorporated into nuclear DNA. BrdU positive cells were calculated and presented as percentage of total cells in the cultures. Averages and standard deviations were calculated from 3 representative fields from each of 3 independent experiments. FIG. 13e: Effect of T-oligo on pRb phosphorylation. Cells were treated as in FIG. 13a and were then collected for protein analysis by western blot using 30 μg total protein and probed for pRb-ser780*, ser795* and ser807/811* (pRb phosphorylated at serine 780, serine 795 and serine 807/811 respectively). […]
# [2] = tested on: phospho-p53 serine 15, phospho-p95 serine 343; assay: T-oligo response in fibroblasts with Mre11 siRNA knockdown, Western blot and densitometry; format: cell-based, human; conditions: fibroblasts with significantly reduced MRE11 levels (Mre11 siRNA), 48 hours
# Procedure: Normal human neonatal fibroblasts were treated with either 10 pmoles Mre11 siRNA or 10 pmoles control (no homology found in expressed human sequences). Cultures dishes were approximately 60% confluent on the day of siRNA transfection. Transfections were carried out using Lipofectamine 2000 (Invitrogen, Carlsbad, Calif.) following the protocol supplied by the manufacturer. The transfection cocktail was applied to the cells for 5 hours and then replaced with fresh medium alone. The next day, the transfection protocol was repeated. The following day, duplicate cultures were treated with the T-oligo or with diluent alone as a negative control. Cells were then collected 48 hours later and the protein analyzed by Western blot using antibodies specific for phospho-p95 serine 343 (Cell Signaling Technology, Beverly, Mass.), Mre11 (GeneTex, San Antonio, Tex.), phosphor-p53 serine 15 (Cell Signaling Technology) and total p53 (Oncogene, San Diego, Calif.) (FIG. 9). Hela cell lysate was used as a positive control for Mre11. Normal fibroblasts exposed to 10 Gy IR or sham irradiated and collected after one hour served as positive controls for p53 and p95/Nbs1 phosphorylation. The autoradiographs were analyzed by densitometry and the values for the T-oligo samples are expressed relative to the values for the diluent-treated samples (FIG. 10 and FIG. 11).
# [3] = tested on: p53, E2F1 transcription factor; assay: Western analysis of p53 and E2F1 in Jurkat cells; format: cell-based, human; conditions: by 24 hours after addition
# [4] = tested on: keratinocyte cell line (SSC12F); assay: S-phase arrest by FACS in keratinocyte cell line; format: cell-based; conditions: 48 hours, 11mer-1 alone (10 μM per FIG. 3B)
# Procedure: FIGS. 3A-3G are profiles showing the results of fluorescence activated cell sorting, for the following additions to the cells: FIG. 3A, diluent; FIG. 3B, 10 μM 11mer-1; FIG. 3C, 10 μM 11mer-1 and 1 μM 11mer-1-S; FIG. 3D, 10 μM 11mer-1 and 5 μM 11mer-1-S; FIG. 3E, 10 μM 11mer-1 and 10 μM 11mer-1-S; FIG. 3F, 20 μM 11mer-1-S; FIG. 3G, 10μM 11mer-1-S.
# Forty-three percent of the cells were in the S phase, compared to 26% of the control, diluent-treated cells.
substance,measurement,setting,value
"pGTTAGGGTTAG (DNA, 5' {P}, backbone not given here; listed as Homo sapiens) [Oligonucleotide 11mer-1]",S phase arrest,Saos-2 cells,causes an S phase arrest
same,state of pRb proteins after removal of oligo,"[1]; HT-1080, 4 days 40 μM, then fresh medium without oligonucleotide","sustained in an active, inhibitory state"
same,"pRb phosphorylation on serine 780, serine 795 and serine 807/811","[1]; HT-1080 cells, 40 μM, 4 days",striking and selective reduction
same,phospho-p53 response to T-oligo,[2],reduced
same,phospho-p95/Nbs1 response to T-oligo,[2],absent
same,level of the E2F1 transcription factor,[3],concomitant increase
same,p53 level (Western analysis),[3],increase
same,cells in the S phase,[4],Forty-three
